The record followed here is patent US9340590B2 (priority 2011, dated 2016).

SMILES strings stand for the structures. Read-outs that look alike come from different tables or passages of the source. Positions of bridges follow the written chain, without caps; N, C: chain ends. Non-standard residues stand in square brackets, D forms with d. Residues, ends and D or L forms follow the SMILES beside them. Sar = CNCC(=O)O

Holding throughout (assay): cell-based
For one test, the target named is hNav1.3 (Homo sapiens, UniProt Q9NY46). Particulars: IonWorks Quattro, read-out: IWQ Use Nav1.3.
Sequence of hNav1.3 (Q9NY46 whole entry, looked up): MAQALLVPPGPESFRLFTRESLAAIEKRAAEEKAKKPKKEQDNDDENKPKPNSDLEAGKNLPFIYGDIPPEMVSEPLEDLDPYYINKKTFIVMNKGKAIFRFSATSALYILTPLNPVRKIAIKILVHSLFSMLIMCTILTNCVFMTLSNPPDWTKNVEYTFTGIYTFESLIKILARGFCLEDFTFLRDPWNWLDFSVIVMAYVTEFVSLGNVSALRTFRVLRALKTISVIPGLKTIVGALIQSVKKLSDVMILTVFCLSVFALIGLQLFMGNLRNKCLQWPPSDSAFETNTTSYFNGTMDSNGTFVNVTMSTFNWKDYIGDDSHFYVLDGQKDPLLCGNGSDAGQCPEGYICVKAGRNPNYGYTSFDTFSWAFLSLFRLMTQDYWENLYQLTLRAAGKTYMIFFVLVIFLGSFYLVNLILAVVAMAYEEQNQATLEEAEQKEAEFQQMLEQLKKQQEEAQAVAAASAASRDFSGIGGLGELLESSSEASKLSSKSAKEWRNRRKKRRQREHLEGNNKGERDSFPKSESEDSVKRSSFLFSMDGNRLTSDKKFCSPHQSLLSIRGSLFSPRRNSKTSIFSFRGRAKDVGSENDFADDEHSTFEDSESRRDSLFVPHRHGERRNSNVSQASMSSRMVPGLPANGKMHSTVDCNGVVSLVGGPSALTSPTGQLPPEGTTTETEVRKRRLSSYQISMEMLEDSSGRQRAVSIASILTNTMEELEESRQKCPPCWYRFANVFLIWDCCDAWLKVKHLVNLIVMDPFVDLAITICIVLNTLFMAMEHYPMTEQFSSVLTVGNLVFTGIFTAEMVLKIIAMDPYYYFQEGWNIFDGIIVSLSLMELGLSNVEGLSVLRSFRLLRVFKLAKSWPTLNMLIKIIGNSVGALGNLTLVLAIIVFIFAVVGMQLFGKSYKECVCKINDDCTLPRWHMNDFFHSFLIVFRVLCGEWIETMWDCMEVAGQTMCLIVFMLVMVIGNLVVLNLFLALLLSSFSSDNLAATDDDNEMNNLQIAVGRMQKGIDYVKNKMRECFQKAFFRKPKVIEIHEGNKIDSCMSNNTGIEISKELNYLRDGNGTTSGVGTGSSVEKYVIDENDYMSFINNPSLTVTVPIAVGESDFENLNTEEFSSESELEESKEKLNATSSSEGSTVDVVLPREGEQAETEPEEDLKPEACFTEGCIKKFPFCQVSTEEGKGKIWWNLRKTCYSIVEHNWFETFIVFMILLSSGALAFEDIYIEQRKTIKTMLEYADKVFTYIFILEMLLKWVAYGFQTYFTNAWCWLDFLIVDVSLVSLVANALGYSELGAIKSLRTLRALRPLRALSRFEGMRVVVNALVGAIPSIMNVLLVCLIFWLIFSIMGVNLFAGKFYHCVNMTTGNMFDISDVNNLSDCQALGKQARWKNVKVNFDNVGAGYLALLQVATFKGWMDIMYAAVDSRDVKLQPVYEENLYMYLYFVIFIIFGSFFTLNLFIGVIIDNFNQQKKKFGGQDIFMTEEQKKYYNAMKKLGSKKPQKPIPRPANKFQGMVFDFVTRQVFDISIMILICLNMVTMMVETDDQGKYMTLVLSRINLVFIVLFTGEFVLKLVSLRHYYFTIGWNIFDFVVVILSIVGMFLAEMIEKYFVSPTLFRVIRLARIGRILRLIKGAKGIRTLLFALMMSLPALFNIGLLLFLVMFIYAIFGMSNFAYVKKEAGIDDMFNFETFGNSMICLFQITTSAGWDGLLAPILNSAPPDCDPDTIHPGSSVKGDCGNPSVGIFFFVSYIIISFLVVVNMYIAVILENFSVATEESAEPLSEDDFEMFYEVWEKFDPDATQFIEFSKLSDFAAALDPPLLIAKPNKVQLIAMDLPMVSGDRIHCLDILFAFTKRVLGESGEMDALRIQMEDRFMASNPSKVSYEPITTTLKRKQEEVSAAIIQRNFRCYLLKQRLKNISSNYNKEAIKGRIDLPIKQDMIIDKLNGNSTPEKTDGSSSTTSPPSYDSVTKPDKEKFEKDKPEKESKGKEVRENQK
For another test, the target named is hNav1.5 (Homo sapiens, UniProt Q14524). The note with it: IonWorks Quattro, read-out: IWQ Use Nav1.5.
The target in another test is hNav1.7 (Homo sapiens, UniProt Q15858). Type of test: cell-based. The note with it: IonWorks Quattro, read-out: IWQ Use Nav1.7.
Sequence of hNav1.7 (Q15858 whole entry, looked up): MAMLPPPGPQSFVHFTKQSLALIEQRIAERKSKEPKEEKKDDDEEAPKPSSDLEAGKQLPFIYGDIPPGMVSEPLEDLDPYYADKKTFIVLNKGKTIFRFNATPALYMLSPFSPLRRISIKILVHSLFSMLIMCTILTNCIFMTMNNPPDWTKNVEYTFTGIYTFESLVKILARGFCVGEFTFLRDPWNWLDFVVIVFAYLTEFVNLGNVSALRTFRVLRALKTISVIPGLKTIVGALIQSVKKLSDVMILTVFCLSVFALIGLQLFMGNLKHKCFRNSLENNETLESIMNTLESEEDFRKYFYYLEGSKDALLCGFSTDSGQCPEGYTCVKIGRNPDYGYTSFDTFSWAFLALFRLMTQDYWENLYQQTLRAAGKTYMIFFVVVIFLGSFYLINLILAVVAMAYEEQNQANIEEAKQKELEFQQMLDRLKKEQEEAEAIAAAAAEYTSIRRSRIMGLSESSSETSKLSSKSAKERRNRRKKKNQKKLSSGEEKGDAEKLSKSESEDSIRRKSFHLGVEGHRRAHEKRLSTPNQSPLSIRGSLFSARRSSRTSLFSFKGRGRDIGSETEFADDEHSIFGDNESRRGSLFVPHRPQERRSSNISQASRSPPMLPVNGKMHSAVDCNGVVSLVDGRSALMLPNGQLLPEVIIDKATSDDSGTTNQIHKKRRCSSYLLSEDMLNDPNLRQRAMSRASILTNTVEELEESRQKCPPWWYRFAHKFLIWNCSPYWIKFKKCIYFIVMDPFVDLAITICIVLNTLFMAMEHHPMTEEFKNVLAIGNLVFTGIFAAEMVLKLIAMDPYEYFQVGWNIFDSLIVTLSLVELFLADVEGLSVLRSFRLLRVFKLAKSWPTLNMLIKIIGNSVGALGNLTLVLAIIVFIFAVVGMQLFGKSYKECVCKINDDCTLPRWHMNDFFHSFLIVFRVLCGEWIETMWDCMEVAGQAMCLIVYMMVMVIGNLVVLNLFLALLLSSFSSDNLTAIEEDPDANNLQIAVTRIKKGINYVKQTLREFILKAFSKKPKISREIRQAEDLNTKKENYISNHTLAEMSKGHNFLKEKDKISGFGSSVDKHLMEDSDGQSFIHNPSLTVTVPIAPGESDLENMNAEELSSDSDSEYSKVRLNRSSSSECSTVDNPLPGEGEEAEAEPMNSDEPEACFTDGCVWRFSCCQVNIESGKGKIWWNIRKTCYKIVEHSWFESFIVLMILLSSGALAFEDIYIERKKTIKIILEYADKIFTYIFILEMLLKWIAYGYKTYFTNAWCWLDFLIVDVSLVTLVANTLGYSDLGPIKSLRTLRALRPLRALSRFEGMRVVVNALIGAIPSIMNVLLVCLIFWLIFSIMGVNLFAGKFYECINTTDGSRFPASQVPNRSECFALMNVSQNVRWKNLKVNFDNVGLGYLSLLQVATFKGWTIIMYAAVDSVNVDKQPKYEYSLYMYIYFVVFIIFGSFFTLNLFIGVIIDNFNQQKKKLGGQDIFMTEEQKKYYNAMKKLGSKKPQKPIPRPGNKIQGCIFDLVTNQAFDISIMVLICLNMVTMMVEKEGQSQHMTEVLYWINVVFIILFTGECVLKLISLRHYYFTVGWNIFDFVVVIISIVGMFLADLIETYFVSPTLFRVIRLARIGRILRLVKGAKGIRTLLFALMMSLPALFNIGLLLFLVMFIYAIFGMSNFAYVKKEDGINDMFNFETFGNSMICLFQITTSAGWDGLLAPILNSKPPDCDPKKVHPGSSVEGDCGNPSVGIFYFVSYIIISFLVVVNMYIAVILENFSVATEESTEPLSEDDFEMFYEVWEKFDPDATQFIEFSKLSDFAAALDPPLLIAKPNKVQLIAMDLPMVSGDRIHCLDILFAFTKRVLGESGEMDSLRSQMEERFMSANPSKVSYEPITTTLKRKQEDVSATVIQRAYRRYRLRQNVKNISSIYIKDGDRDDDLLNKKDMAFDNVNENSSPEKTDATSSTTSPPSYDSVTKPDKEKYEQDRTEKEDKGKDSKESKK
Setting [1] is: use-dependent protocol, hNav1.3.
Setting [2] is: use-dependent protocol, hNav1.5.
[3] abbreviates: use-dependent protocol, hNav1.7.
[4] abbreviates: clamped to −110 mV, depolarized to −10 mV, 5 min after compound, n=2.

Regarding `CC[C@H](C)[C@@H]1NC(=O)[C@@H]2CSSC[C@@H]3NC(=O)[C@H](C(C)C)NC(=O)[C@H](CC(C)C)NC(=O)[C@H](CC(N)=O)NC(=O)[C@@H]4CCCN4C(=O)[C@H](CCCNC(=N)N)NC(=O)[C@H](CSSC[C@H](NC(=O)[C@@H](N)CC(=O)O)C(=O)N[C@@H](CC(C)C)C(=O)NCC(=O)N[C@@H](Cc4ccccc4)C(=O)N[C@@H](CCSC)C(=O)N[C@@H](CCCNC(=N)N)C(=O)N[C@@H](CCCCN)C(=O)N2)NC(=O)[C@H](CSSC[C@@H](C(=O)N[C@@H](CCCCN)C(=O)N[C@@H](Cc2ccc(O)cc2)C(=O)N[C@H](C(=O)N[C@@H](Cc2ccccc2)C(N)=O)C(C)C)NC(=O)[C@H](Cc2c[nH]c4ccccc24)NC(=O)[C@H](CCCCN)NC(=O)[C@H](Cc2cnc[nH]2)NC(=O)[C@H](CCCCN)NC(=O)[C@H](CCCNC(=N)N)NC(=O)[C@H](CO)NC3=O)NC(=O)[C@H](CCCCN)NC(=O)[C@H](CC(=O)O)NC(=O)[C@H](CC(N)=O)NC(=O)[C@H](CC(=O)O)NC(=O)[C@@H]2CCCN2C1=O` [compound 54] (H-DCLGFMRKCIPDNDKCCRPNLVCSRKHKWCKYVF-NH2; disulfide 2-17, 9-23, 16-30), the IC50 at hNav1.3 (Table 22, use, […]) amounted to 20 nM; at hNav1.5 (Table 22, use, […]) it was 7960 nM; on hNav1.7 (Table 22, use, […]), 50 nM.

`CC[C@H](C)[C@@H]1NC(=O)[C@@H]2CSSC[C@@H]3NC(=O)[C@H](C(C)C)NC(=O)[C@H](CC(C)C)NC(=O)[C@H](CC(N)=O)NC(=O)[C@@H]4CCCN4C(=O)[C@H](CCCNC(=N)N)NC(=O)[C@H](CSSC[C@H](NC(=O)[C@@H](N)CC(=O)O)C(=O)N[C@@H](CC(C)C)C(=O)NCC(=O)N(C)[C@@H](Cc4ccccc4)C(=O)N[C@@H](CC(C)C)C(=O)N[C@@H](CCCNC(=N)N)C(=O)N[C@@H](CCCCN)C(=O)N2)NC(=O)[C@H](CSSC[C@@H](C(=O)N[C@@H](CCCCN)C(=O)N[C@@H](Cc2ccc(O)cc2)C(=O)N[C@H](C(=O)N[C@@H](Cc2ccccc2)C(N)=O)C(C)C)NC(=O)[C@H](Cc2c[nH]c4ccccc24)NC(=O)[C@H](CCCCN)NC(=O)[C@H](Cc2c[nH]cn2)NC(=O)[C@H]([C@@H](C)O)NC(=O)[C@H](CCCNC(=N)N)NC(=O)[C@H](CO)NC3=O)NC(=O)[C@H](CCCCN)NC(=O)[C@H](CC(=O)O)NC(=O)[C@H](CC(N)=O)NC(=O)[C@H](CC(=O)O)NC(=O)[C@@H]2CCCN2C1=O` [compound 674]: the IC50 on hNav1.3 (setting [1]) is 310 nM; on hNav1.5 (setting [2]), more than 5000 nM; on hNav1.7 (setting [3]), 240 nM.

For the molecule `CC[C@H](C)[C@@H]1NC(=O)[C@H](Cc2ccccc2)NC(=O)CNC(=O)[C@H](CC(C)C)NC(=O)[C@@H](NC(=O)[C@@H](N)CC(=O)O)CSSC[C@@H]2NC(=O)[C@@H]3CSSC[C@@H](C(=O)N[C@@H](CCCCN)C(=O)N[C@@H](Cc4ccc(O)cc4)C(=O)N[C@H](C(=O)N[C@@H](Cc4ccccc4)C(N)=O)C(C)C)NC(=O)[C@H](Cc4c[nH]c5ccccc45)NC(=O)[C@H](CCCCN)NC(=O)[C@H](Cc4c[nH]cn4)NC(=O)[C@H]([C@@H](C)O)NC(=O)[C@H](CCCNC(=N)N)NC(=O)[C@H](CO)NC(=O)[C@H](CSSC[C@H](NC(=O)[C@H](CCCCN)NC(=O)[C@H](CCCNC(=N)N)NC1=O)C(=O)N[C@@H]([C@@H](C)CC)C(=O)N1CCC[C@H]1C(=O)N[C@@H](CC(=O)O)C(=O)N[C@@H](CC(N)=O)C(=O)N[C@@H](CC(=O)O)C(=O)N[C@@H](CCCCN)C(=O)N3)NC(=O)[C@H](C(C)C)NC(=O)[C@H](CC(C)C)NC(=O)[C@H](CC(N)=O)NC(=O)[C@@H]1CCCN1C(=O)[C@H](CCCNC(=N)N)NC2=O` [SEQ ID NO: 282] (H-DCLGFIRKCIPDNDKCCRPNLVCSRTHKWCKYVF-NH2; disulfide 2-17, 9-23, 16-30), the figures for the IC50 on hNav1.3 (setting [4]), on hNav1.5 (setting [4]) and on hNav1.7 (setting [4]) were 60 nM, 8630 nM and 70 nM, respectively.

Turning to `CC[C@H](C)[C@@H]1NC(=O)[C@@H]2CSSC[C@@H]3NC(=O)[C@H](C(C)C)NC(=O)[C@H](CC(C)C)NC(=O)[C@H](CC(N)=O)NC(=O)[C@@H]4CCCN4C(=O)[C@H](CCCNC(=N)N)NC(=O)[C@H](CSSC[C@H](NC(=O)[C@@H](N)CC(=O)O)C(=O)N[C@@H](CC(C)C)C(=O)NCC(=O)N[C@@H](Cc4ccccc4)C(=O)N[C@@H](CCSC)C(=O)N[C@@H](CCCNC(=N)N)C(=O)N[C@@H](CCCCN)C(=O)N2)NC(=O)[C@H](CSSC[C@@H](C(=O)N[C@@H](CCCCN)C(=O)N[C@@H](Cc2ccc(O)cc2)C(=O)N[C@@H](CCCCN)C(=O)N[C@@H](Cc2ccccc2)C(N)=O)NC(=O)[C@H](Cc2c[nH]c4ccccc24)NC(=O)[C@H](CCCCN)NC(=O)[C@H](Cc2cnc[nH]2)NC(=O)[C@H]([C@@H](C)O)NC(=O)[C@H](CCCNC(=N)N)NC(=O)[C@H](CO)NC3=O)NC(=O)[C@H](CCCCN)NC(=O)[C@H](CC(=O)O)NC(=O)[C@H](CC(N)=O)NC(=O)[C@H](CC(=O)O)NC(=O)[C@@H]2CCCN2C1=O` [compound 58] (H-DCLGFMRKCIPDNDKCCRPNLVCSRTHKWCKYKF-NH2; disulfide 2-17, 9-23, 16-30), the IC50 is 70 nM on hNav1.3 (Table 26, use, […]); 9560 nM on hNav1.5 (Table 26, use, […]); 70 nM at hNav1.7 (Table 26, use, […]).

Regarding `CC[C@H](C)[C@@H]1NC(=O)[C@@H]2CSSC[C@@H]3NC(=O)[C@H](C(C)C)NC(=O)[C@H](CC(C)C)NC(=O)[C@H](CC(N)=O)NC(=O)[C@@H]4CCCN4C(=O)[C@H](CCCNC(=N)N)NC(=O)[C@H](CSSC[C@H](NC(=O)[C@@H](N)CC(=O)O)C(=O)N[C@@H](CC(C)C)C(=O)NCC(=O)N[C@@H](C)C(=O)N[C@@H](Cc4ccccc4)C(=O)N[C@@H](CCCNC(=N)N)C(=O)N[C@@H](CCCCN)C(=O)N2)NC(=O)[C@H](CSSC[C@@H](C(=O)N[C@@H](CCCCN)C(=O)N[C@@H](Cc2ccc(O)cc2)C(=O)N[C@H](C(=O)N[C@@H](Cc2ccccc2)C(=O)N[C@@H](Cc2ccccc2)C(=O)O)C(C)C)NC(=O)[C@H](Cc2c[nH]c4ccccc24)NC(=O)[C@H](CCCNC(=N)N)NC(=O)[C@H](Cc2c[nH]cn2)NC(=O)[C@H]([C@@H](C)O)NC(=O)[C@H](CCCNC(=N)N)NC(=O)[C@H](CO)NC3=O)NC(=O)[C@H](CCCCN)NC(=O)[C@H](CC(=O)O)NC(=O)[C@H](CC(N)=O)NC(=O)[C@H](CC(=O)O)NC(=O)[C@@H]2CCCN2C1=O` [compound 817] (H-DCLGAFRKCIPDNDKCCRPNLVCSRTHRWCKYVFF-OH; disulfide 2-17, 9-23, 16-30), the IC50 on hNav1.3 (use-dependent block, hNav1.3) was 500 nM; on hNav1.5 (use-dependent block, hNav1.5), more than 5000 nM; at hNav1.7 (use-dependent block, hNav1.7) it was 1500 nM.

Consider `CC[C@H](C)[C@@H]1NC(=O)[C@@H]2CSSC[C@@H]3NC(=O)[C@H](C(C)C)NC(=O)[C@H](CC(C)C)NC(=O)[C@H](CC(N)=O)NC(=O)[C@@H]4CCCN4C(=O)[C@H](CCCNC(=N)N)NC(=O)[C@H](CSSC[C@H](NC(=O)[C@@H](N)CC(=O)O)C(=O)N[C@@H](CC(C)C)C(=O)NCC(=O)N(C)CC(=O)N[C@@H](Cc4ccccc4)C(=O)N[C@@H](CCCNC(=N)N)C(=O)N[C@@H](CCCCN)C(=O)N2)NC(=O)[C@H](CSSC[C@@H](C(=O)N[C@@H](CCCCN)C(=O)N[C@@H](Cc2ccc(O)cc2)C(=O)N[C@H](C(=O)N[C@@H](Cc2ccccc2)C(N)=O)C(C)C)NC(=O)[C@H](Cc2c[nH]c4ccccc24)NC(=O)[C@H](CCCCN)NC(=O)[C@H](Cc2c[nH]cn2)NC(=O)[C@H]([C@@H](C)O)NC(=O)[C@H](CCCNC(=N)N)NC(=O)[C@H](CO)NC3=O)NC(=O)[C@H](CCCCN)NC(=O)[C@H](CC(=O)O)NC(=O)[C@H](CC(N)=O)NC(=O)[C@H](CC(=O)O)NC(=O)[C@@H]2CCCN2C1=O` [compound 632] (H-DCLG[Sar]FRKCIPDNDKCCRPNLVCSRTHKWCKYVF-NH2; disulfide 2-17, 9-23, 16-30), for which the IC50 at hNav1.3 (setting [1]) amounted to 450 nM; at hNav1.5 (setting [2]) it was 10500 nM; on hNav1.7 (setting [3]), 680 nM.

Take `CC[C@H](C)[C@@H]1NC(=O)[C@@H]2CSSC[C@@H]3NC(=O)[C@H](C(C)C)NC(=O)[C@H](CC(C)C)NC(=O)[C@H](CC(N)=O)NC(=O)[C@@H]4CCCN4C(=O)[C@H](CCCNC(=N)N)NC(=O)[C@H](CSSC[C@H](NC(=O)[C@@H](N)CC(=O)O)C(=O)N[C@@H](CC(C)C)C(=O)NCC(=O)N[C@@H](C)C(=O)N[C@@H](CCSC)C(=O)N[C@@H](CCCNC(=N)N)C(=O)N[C@@H](CCCCN)C(=O)N2)NC(=O)[C@H](CSSC[C@@H](C(=O)N[C@@H](CCCCN)C(=O)N[C@@H](Cc2ccc(O)cc2)C(=O)N[C@H](C(=O)N[C@@H](C)C(N)=O)C(C)C)NC(=O)[C@H](Cc2c[nH]c4ccccc24)NC(=O)[C@H](CCCCN)NC(=O)[C@H](Cc2c[nH]cn2)NC(=O)[C@H]([C@@H](C)O)NC(=O)[C@H](CCCNC(=N)N)NC(=O)[C@H](CO)NC3=O)NC(=O)[C@H](CCCCN)NC(=O)[C@H](CC(=O)O)NC(=O)[C@H](CC(N)=O)NC(=O)[C@H](CC(=O)O)NC(=O)[C@@H]2CCCN2C1=O` [compound 431] (H-DCLGAMRKCIPDNDKCCRPNLVCSRTHKWCKYVA-NH2; disulfide 2-17, 9-23, 16-30): the IC50 on hNav1.3 (use-dependent block, hNav1.3) is more than 5000 nM; at hNav1.5 (use-dependent block, hNav1.5), more than 5000 nM; at hNav1.7 (use-dependent block, hNav1.7), more than 5000 nM.
